From patent US11230532B2, “Pyrimidines and variants thereof, and uses therefor” (Afferent Pharmaceuticals Inc., priority 2016, dated 2022)

Tests used:
[1] = target: T1, human P2X2/3 receptor (heteromeric P2X2/3 channels) (Homo sapiens, UniProt P56373+Q9UBL9); assay: FlexStation calcium fluorescence assay, heteromeric P2X2/3 channels (1321N1-hP2X2/3 cells); assay type: cell-based; conditions: agonist 3 μM ATP, highest concentration tested 10 μM, read-out: Average pIC50 P2X2/3 (converted)
T1 construct: expressed in transfected cells; host or cells: 1321N1 human astrocytoma cells (1321N1-hP2X2/3)
T1 sequence (P56373 1-397): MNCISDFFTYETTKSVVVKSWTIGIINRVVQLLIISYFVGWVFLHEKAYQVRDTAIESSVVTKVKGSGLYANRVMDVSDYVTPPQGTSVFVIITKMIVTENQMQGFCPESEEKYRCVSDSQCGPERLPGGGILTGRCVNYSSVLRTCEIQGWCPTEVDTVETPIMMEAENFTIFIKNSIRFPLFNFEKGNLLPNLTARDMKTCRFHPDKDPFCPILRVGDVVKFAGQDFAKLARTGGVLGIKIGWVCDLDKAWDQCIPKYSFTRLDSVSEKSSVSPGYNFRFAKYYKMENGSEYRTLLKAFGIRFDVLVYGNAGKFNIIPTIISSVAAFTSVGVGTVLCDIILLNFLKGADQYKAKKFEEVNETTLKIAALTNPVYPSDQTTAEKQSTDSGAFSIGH
T1 sequence (Q9UBL9 1-471): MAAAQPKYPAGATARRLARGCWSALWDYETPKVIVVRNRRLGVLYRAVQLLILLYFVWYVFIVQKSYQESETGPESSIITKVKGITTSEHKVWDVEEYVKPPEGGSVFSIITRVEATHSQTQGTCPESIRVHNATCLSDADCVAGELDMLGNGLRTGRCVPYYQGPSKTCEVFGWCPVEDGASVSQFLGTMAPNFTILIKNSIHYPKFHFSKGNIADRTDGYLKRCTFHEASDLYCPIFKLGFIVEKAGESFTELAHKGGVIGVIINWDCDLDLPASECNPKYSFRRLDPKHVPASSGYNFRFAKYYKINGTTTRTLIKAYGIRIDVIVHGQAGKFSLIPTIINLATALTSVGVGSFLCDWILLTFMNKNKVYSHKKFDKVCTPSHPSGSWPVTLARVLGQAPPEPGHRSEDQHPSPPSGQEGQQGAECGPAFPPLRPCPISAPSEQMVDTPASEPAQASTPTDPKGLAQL
Experimental: (§1) 1321N1 human astrocytoma and HEK293 human embryonic kidney cells were stably transfected with human P2X2 and P2X3 receptor subunits to form heteromeric P2X2/3 channels and passaged in flasks. Additionally, HEK293 cells were stably transfected with human P2X3 receptor subunits to form homomeric P2X3 channels.
(§2) Approximately 24 hours before the FlexStation calcium fluorescence experiment, cells were released from their flasks, centrifuged and re-suspended in nutrient medium. The cells were aliquoted into black-wall, clear-bottom 96 well plates at a density of 25,000 cells per well and incubated overnight in a humidified, CO2-enriched (5%) atmosphere at 37° C.
(§3) On the day of the experiment, cells were washed with assay buffer (calcium- and magnesium-free Hank's balanced salt solution, 20 mM HEPES, 2 mM CaCl2; AB) and loaded with 4 μM Fluo-4 (P2X2/3) or Calcium 6 (Molecular Devices, according to manufacturer's instructions; P2X3) calcium-sensitive fluorescent dye in 100 μL AB.
(§4) After 1 hour of dye loading at 37° C., 1321N1-hP2X2/3 cells were washed two times with AB and test compound or vehicle added to each well in a total volume of 150 μL AB. HEK-hP2X3 cells were not washed because the Calcium 6 dye kit includes an extracellular dye that quenches unabsorbed Calcium 6 dye; test compound or vehicle were added directly to the assay plates to achieve the appropriate concentration of test compound in a total volume of 150 μL AB.
(§5) After 20 minutes incubation at RT and protected from light, the assay plates were loaded into the FlexStation microplate reader and baseline fluorescence measured with an excitation wavelength of 485 nm and emission wavelength readings centered at 525 nm (515 nm cut off).
(§6) The agonist was dispensed by the FlexStation during fluorescence measurement to construct agonist activation and antagonist inhibition curves. The final agonist concentration for inhibition was 1 μM α,β-meATP for P2X3 and 3 μM ATP for P2X2/3. Peak fluorescence was measured and curves generated using a four parameter nonlinear regression equation.

[2] = target: T2, human P2X3 receptor (homomeric P2X3 channels) (Homo sapiens, UniProt P56373); assay: FlexStation calcium fluorescence assay, homomeric P2X3 channels (HEK-hP2X3 cells); assay type: cell-based; conditions: for IC50: HEK293 cells stably transfected with human P2X3, agonist 1 μM α,β-meATP, highest concentration tested 10 μM, read-out: Average pIC50 P2X3 (converted); for Selectivity P2X3/P2X2/3: potency ratio P2X3 over P2X2/3 from pIC50s; for Selectivity, X = S: potency ratio P2X3 over P2X2/3
T2 construct: expressed in transfected cells; host or cells: HEK293 human embryonic kidney cells (HEK-hP2X3)
T2 sequence (P56373 1-397): T1 sequence (P56373 1-397)
Experimental: as §1, §2, §3, §4, §5, §6

Row | IC50 [1] | IC50 [2] | Selectivity P2X3/P2X2/3 [2] | Selectivity, X = S [2] | Structure (SMILES)
1 | > 10000 nM | 79.4 nM | >123 | – | COc1cc(C(C)C)c(Nc2cnc(N)nc2N)cc1C(F)(F)F [Compound 40]
2 | > 10000 nM | 200 nM | >48 | – | COc1nc(C(C)C)c(Sc2cnc(N)nc2N)cc1Cl [Compound 38]
3 | > 10000 nM | > 10000 nM | – | – | COc1cc(C(C)C)c([S+]([O-])c2cnc(N)nc2N)cc1OC (stereo not drawn) [Comparative Compound 1, reference compound]
4 | > 10000 nM | 1580 nM | >6.0 | – | COc1nc(C(C)C)c(Oc2cnc(N)nc2N)nc1N(C)C [Compound 45]
5 | 200 nM | 50.1 nM | 3.9 | – | C#Cc1cc(Sc2cnc(N)nc2N)c(C(C)C)nc1OC [Compound 29]
6 | 5010 nM | 25.1 nM | 208 | – | COc1cc(C(C)C)c(Nc2cnc(N)nc2N)cc1Cl [Compound 39]
7 | – | – | 97 | – | C#Cc1cc(Sc2cnc(N)nc2N)c(C(C)C)cc1OC [Compound 5]
8 | – | – | 5.2 | – | COc1cc(Oc2cnc(N)nc2N)c(C(C)C)nc1OC [Compound 13]
9 | 6310 nM | 794 nM | 8.3 | – | COc1nc(C(C)C)c(Sc2cnc(N)nc2N)cc1C(F)(F)F [Compound 34]
10 | – | – | >56 | – | COc1cc(C(C)C)c(Sc2cnc(N)nc2N)cc1Cl [Compound 9]
11 | – | – | 19 | – | COc1nc(C(C)C)c(Oc2cnc(N)nc2N)cc1S(N)(=O)=O [Compound 20]
12 | 794 nM | 25.1 nM | 26 | – | COc1nc(C(C)C)c(Oc2cnc(N)nc2N)cc1Cl [Compound 33]
13 | 398 nM | 100 nM | 4 | – | COc1nc(C(C)C)c(Sc2cnc(N)nc2N)cc1Br [Compound 24]
14 | – | – | >7.1 | – | COc1ccc(Oc2cnc(N)nc2N)c(C(C)C)n1 [Compound 14]
15 | 398 nM | 10 nM | 34 | – | COc1nc(C(C)C)c(Nc2cnc(N)nc2N)cc1Cl [Compound 32]
16 | – | – | >10 | – | COc1nc(C(C)C)c(Oc2cnc(N)nc2N)cc1C#N [Compound 17]
17 | – | – | – | >50 | COc1cc(C(C)C)c(Sc2cnc(N)nc2N)cc1Cl [D, X = S]
18 | – | – | – | >100 | COc1cc(Sc2cnc(N)nc2N)c(C(C)C)cc1OC [A, X = S]
19 | 501 nM | 12.6 nM | 41 | – | COc1nc(C(C)C)c(Oc2cnc(N)nc2N)cc1SC [Compound 41]
20 | > 10000 nM | 3980 nM | >3 | – | COc1ccc(Sc2cnc(N)nc2N)c(C(C)C)n1 [Compound 23]
21 | – | – | 23 | – | COc1nc(C(C)C)c(Oc2cnc(N)nc2N)cc1C(F)(F)F [Compound 18]
22 | – | – | 48 | – | COc1cc(C(C)C)c(Sc2cnc(N)nc2N)cc1I [Compound 4]
23 | – | – | >13 | – | CC#Cc1cc(Sc2cnc(N)nc2N)c(C(C)C)cc1OC [Compound 6]
24 | – | – | >34 | – | COc1cc(C(C)C)c(Sc2cnc(N)nc2N)cc1C [Compound 7]
25 | – | – | >58 | – | COc1cc(C(C)C)c(Sc2cnc(N)nc2N)cc1-c1nnn[nH]1 [Compound 11]
26 | – | – | 28 | – | C#Cc1cc(Oc2cnc(N)nc2N)c(C(C)C)nc1OC [Compound 19]

Row | IC50 [1] | IC50 [2] | Selectivity P2X3/P2X2/3 [2] | Selectivity, X = S [2] | Structure (SMILES)
27 | > 10000 nM | 398 nM | >24 | – | CCc1cc(OC)c(I)cc1Sc1cnc(N)nc1N [Compound 21]
28 | – | – | >47 | – | COc1cc(C(C)C)c(Sc2cnc(N)nc2N)cc1Br [Compound 8]
29 | 1000 nM | 100 nM | 10 | – | COc1nc(C(C)C)c(Oc2cnc(N)nc2N)nc1C(F)(F)F [Compound 46]
30 | > 10000 nM | > 10000 nM | – | – | COc1cc(C(C)C)c(S(=O)(=O)c2cnc(N)nc2N)cc1OC [Comparative Compound 2, reference compound]
31 | > 10000 nM | 126 nM | >73 | – | COc1cc(C(C)C)c(Nc2cnc(N)nc2N)cc1S(C)(=O)=O [Compound 37]
32 | > 10000 nM | 3980 nM | >3 | – | CCc1cc(OC)c(S(C)(=O)=O)cc1Sc1cnc(N)nc1N [Compound 22]
33 | > 10000 nM | 3980 nM | >2.5 | – | COc1nc(C(C)C)c(Sc2cnc(N)nc2N)cc1SC(F)(F)F [Compound 31]
34 | 1580 nM | 63.1 nM | 28 | – | COc1cc(Nc2cnc(N)nc2N)c(C(C)C)cc1OC [Compound 30]
35 | > 10000 nM | 200 nM | >52 | – | COc1nc(C(C)C)c(Sc2cnc(N)nc2N)cc1S(C)(=O)=O [Compound 25]
36 | 6310 nM | 794 nM | 7.2 | – | CC#Cc1cc(Sc2cnc(N)nc2N)c(C(C)C)nc1OC [Compound 28]
37 | – | – | >145 | – | COc1nc(C(C)C)c(Oc2cnc(N)nc2N)cc1S(C)(=O)=O [Compound 16]
38 | – | – | – | 48 | COc1cc(C(C)C)c(Sc2cnc(N)nc2N)cc1I [B, X = S]
39 | > 10000 nM | 316 nM | >33 | – | COc1nc(C(C)C)c(Oc2cnc(N)nc2N)cc1[S+](C)[O-] (stereo not drawn) [Compound 42]
40 | – | – | >2 | – | COc1cc(C(C)C)c(Sc2cnc(N)nc2N)cc1C(=O)O [Compound 12]
41 | 7940 nM | 39.8 nM | 198 | – | COc1nc(C(C)C)c(Nc2cnc(N)nc2N)cc1C(F)(F)F [Compound 35]
42 | – | – | >100 | greater than 100 | COc1cc(Sc2cnc(N)nc2N)c(C(C)C)cc1OC [Compound 1]
43 | 1260 nM | 631 nM | 2.1 | – | COc1nc(C(C)C)c(Oc2cnc(N)nc2N)cc1SC(F)(F)F [Compound 47]
44 | > 10000 nM | 25.1 nM | >370 | – | COc1nc(C(C)C)c(Nc2cnc(N)nc2N)cc1S(C)(=O)=O [Compound 36]
45 | – | – | >67 | – | COc1cc(C(C)C)c(Sc2cnc(N)nc2N)cc1S(N)(=O)=O [Compound 3]
46 | > 10000 nM | 7940 nM | >1 | – | COc1nc(C(C)C)c(Sc2cnc(N)nc2N)cc1C#N [Compound 26]
47 | – | – | – | >18 | COc1cc(C(C)C)c(Sc2cnc(N)nc2N)cc1S(C)(=O)=O [C, X = S]
48 | > 10000 nM | 3160 nM | >3.4 | – | COc1nc(C(C)C)c(Oc2cnc(N)nc2N)cc1S(C)(=N)=O (stereo not drawn) [Compound 43]
49 | 2000 nM | 10 nM | 225 | – | COc1cc(Nc2cnc(N)nc2N)c(C(C)C)nc1OC [Compound 44]
50 | – | – | >18 | – | COc1cc(C(C)C)c(Sc2cnc(N)nc2N)cc1S(C)(=O)=O [Compound 2]
51 | 631 nM | 79.4 nM | 7.3 | – | COc1nc(C(C)C)c(Sc2cnc(N)nc2N)cc1S(N)(=O)=O [Compound 27]
